IC50 data for 62 molecules are collected here from patent US20230339851A1, “CXCR6 SULFONAMIDE COMPOUNDS” (CHEMOCENTRYX, INC., priority 2022, published 2023).

Bounds are passed on as bounds.

The target of the experiment is T1, human CXCR6 (Homo sapiens, UniProt O00574).
T1 construct: expressed in transfected cells
Briefly: Radioligand Binding Assay (125I-CXCL16 displacement). Conditions: L1.2 cells stably transfected with human CXCR6 cDNA, 0.1 nM 125I-CXCL16, 4° C., three-hour incubation; read-out: Potency (IC50). The protocol:
L1.2 cells stably transfected with human CXCR6 cDNA ([…]) were incubated at 4° C. in HBSS containing 0.1 % BSA and 0.1 nM of ^125I-CXCL16 plus various concentrations of Compound. Following a three-hour incubation period, cells were aspirated onto polyethyleneimine-treated GF/B glass fiber filters (PerkinElmer, Waltham, MA) with a cell harvester (Tomtec, Hamden, CT) and washed twice with washing buffer (25 mM Hepes, 500 mM NaCl, 1 mM CaCI2, 5 mM MgCI2, pH 7.1). Fifty µl of MicroScint-20 (PerkinElmer, Waltham, MA) was added to each well of the filters, and radioactive emissions (cpm) were measured on a Packard TopCount Scintillation counter (PerkinElmer, Waltham, MA). IC50 values were calculated with GraphPad Prism using 3 parameter nonlinear regression. […]

T1 sequence (O00574 whole entry): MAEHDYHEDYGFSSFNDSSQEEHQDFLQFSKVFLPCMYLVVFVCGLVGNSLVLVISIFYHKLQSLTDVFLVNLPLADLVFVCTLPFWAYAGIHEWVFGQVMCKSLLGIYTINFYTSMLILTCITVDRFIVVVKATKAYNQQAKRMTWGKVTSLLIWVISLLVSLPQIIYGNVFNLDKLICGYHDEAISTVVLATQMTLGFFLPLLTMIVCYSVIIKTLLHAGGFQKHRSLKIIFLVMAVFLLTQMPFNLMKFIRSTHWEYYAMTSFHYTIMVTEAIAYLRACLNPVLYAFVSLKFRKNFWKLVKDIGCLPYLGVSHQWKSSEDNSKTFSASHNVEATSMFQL

As a reminder, the IC50 is the concentration at which inhibition is half-maximal. `Cc1cc(NC(=O)c2ccccc2Cl)ccc1S(=O)(=O)Nc1cccc(C(F)(F)F)c1` [Example 1.292]: the IC50 was 200 to 750 nM. Consider `COc1cc(NC(=O)C2CCCC2)ccc1S(=O)(=O)Nc1cccc(C(F)(F)F)c1` [Example 1.497], for which the IC50 is 750 to 2000 nM. On to `CCOc1cc(NC(=O)CC(O)C2CCOCC2)ccc1S(=O)(=O)Nc1cccc(OC(F)(F)F)c1` (centres unmarked) [Example 1.401], for which the half-maximal inhibitory concentration (IC50) fell in the range of 200 to 750 nM. On to `CCOc1cc(NC(=O)[C@@H](CO)C(C)CC)ccc1S(=O)(=O)Nc1cccc(OC(F)(F)F)c1` (some centres unmarked) [Example 1.297], for which the IC50 is ≤ 200 nM. Turning to `CCc1cc(NC(=O)[C@@H](CO)C(C)C)ccc1S(=O)(=O)Nc1cccc(OC(F)(F)F)c1` [Example 1.201], the IC50 was ≤ 200 nM. Regarding `CCOc1cc(NC(=O)[C@@H](CO)c2ccccc2)ccc1S(=O)(=O)Nc1cccc(OC(F)(F)F)c1C` [Example 1.274], the IC50 is 2000 to 20000 nM. As for `CCOc1cc(NC(=O)[C@@H](CO)c2ccccc2)ccc1S(=O)(=O)Nc1ccc(C)c(C(F)(F)F)c1` [Example 1.425], the half-maximal inhibitory concentration (IC50) was ≤ 200 nM.

In the case of `COc1cc(NC(=O)[C@@H]2CCC[C@H](OC)C2)ccc1S(=O)(=O)Nc1cccc(C(F)(F)F)c1` [Example 1.561], the IC50 lay in the range of 2000 to 20000 nM.

Turning to `Cc1cc(NC(=O)C(F)(F)F)ccc1S(=O)(=O)Nc1cccc(C(F)(F)F)c1` [Example 1.467], the IC50 was in the range of 2000 to 20000 nM.

With `COc1cc(NC(=O)CC2COCCN2)ccc1S(=O)(=O)Nc1cccc(C(F)(F)F)c1` (centres unmarked) [Example 1.240], the IC50 was in the range of 2000 to 20000 nM. On to `CCOc1cc(NC(=O)C2CC=CCC2)ccc1S(=O)(=O)Nc1cccc(OC(F)(F)F)c1` (centres unmarked) [Example 1.480], for which the 50% inhibitory concentration (IC50) was in the range of 200 to 750 nM.

As to `CCOc1cc(NC(=O)[C@@H](CO)c2ccccc2)ccc1S(=O)(=O)Nc1cccc(OC)c1C` [Example 1.045], the half-maximal inhibitory concentration (IC50) lay within 2000 to 20000 nM. Turning to `CCOc1cc(NC(=O)[C@H]2CCC=C[C@H]2O)ccc1S(=O)(=O)Nc1cccc(OC(F)(F)F)c1` [Example 1.226], the IC50 lay within 200 to 750 nM. For the molecule `CCOc1cc(NC(=O)C(CC2CC=CCC2)C(=O)O)ccc1S(=O)(=O)Nc1cccc(OC(F)(F)F)c1` (centres unmarked) [Example 1.229], the IC50 was ≤ 200 nM. For `CCOc1cc(NC(=O)[C@@H](O)c2ccccc2)ccc1S(=O)(=O)Nc1ccc(C)c(OC(F)(F)F)c1` [Example 1.279] the value was ≤ 200 nM. For `COCc1cc(NC(=O)[C@@H](CO)c2ccccc2)ccc1S(=O)(=O)Nc1cccc(OC(F)(F)F)c1` [Example 1.143] the value was ≤ 200 nM; for `CCOc1cc(NC(=O)C(C)C(O)C2CCOCC2)ccc1S(=O)(=O)Nc1cccc(OC(F)(F)F)c1` (centres unmarked) [Example 1.072], 200 to 750 nM; for `CCOc1cc(NC(=O)c2ccn(CC)c(=O)c2)ccc1S(=O)(=O)Nc1cccc(OC(F)(F)F)c1` [Example 1.396], ≤ 200 nM. Turning to `CCOc1cc(NC(=O)C(CCO)c2ccccc2)ccc1S(=O)(=O)Nc1cccc(OC(F)(F)F)c1` (centres unmarked) [Example 1.047], the IC50 was ≤ 200 nM. As for `COc1cc(NC(=O)c2ccn(C)c(=O)c2)ccc1S(=O)(=O)Nc1cccc(OC(F)(F)F)c1` [Example 1.038], the IC50 was in the range of 200 to 750 nM.

Consider `COc1c(S(=O)(=O)Nc2cccc(OC(F)(F)F)c2)ccc(NC(=O)c2ccnn2C)c1C` [Example 1.203], for which the 50% inhibitory concentration (IC50) lay in the range of 2000 to 20000 nM.

In the case of `COc1cc(NC(=O)[C@@H]2C=CCN2C)ccc1S(=O)(=O)Nc1cccc(C(F)(F)F)c1` [Example 1.194], the half-inhibitory concentration (IC50) was in the range of 2000 to 20000 nM.

As to `COc1cc(NC(=O)c2ccnn2C)ccc1S(=O)(=O)Nc1ccc(Cl)c(OC(F)(F)F)c1` [Example 1.469], the half-maximal inhibitory concentration (IC50) was ≤ 200 nM. Take `CC(=O)Nc1ccc(S(=O)(=O)Nc2cccc(C(F)(F)F)c2)c(C(C)C)c1` [Example 1.573]: the IC50 lay in the range of 2000 to 20000 nM.

Turning to `COCC1(C(=O)Nc2ccc(S(=O)(=O)Nc3cccc(C(F)(F)F)c3)c(C)c2)CC1` [Example 1.424], the IC50 was in the range of 2000 to 20000 nM. With `CCOc1cc(NC(=O)C(CCO)C(F)(F)F)ccc1S(=O)(=O)Nc1cccc(OC(F)(F)F)c1` (centres unmarked) [Example 1.335], the IC50 is ≤ 200 nM.

As for `CCOc1cc(NC(=O)C2c3ccccc3CC2O)ccc1S(=O)(=O)Nc1cccc(OC(F)(F)F)c1` (centres unmarked) [Example 1.257], the half-inhibitory concentration (IC50) was ≤ 200 nM.

In the case of `COc1cc(NC(=O)c2ccnn2C)ccc1S(=O)(=O)Nc1cc(C(F)(F)F)cc(C(F)(F)F)c1` [Example 1.112], the 50% inhibitory concentration (IC50) fell in the range of 2000 to 20000 nM. The result for `COc1cc(NC(=O)C2CCOCC2)ccc1S(=O)(=O)Nc1cccc(C(F)(F)F)c1` [Example 1.304] reads 750 to 2000 nM; that for `COCC(=O)Nc1ccc(S(=O)(=O)Nc2cccc(C(F)(F)F)c2)c(C)c1` [Example 1.544], 2000 to 20000 nM. Turning to `CCOc1cc(NC(=O)[C@H]2CCCC[C@H]2C(=O)O)ccc1S(=O)(=O)Nc1ccc(C)c(OC(F)(F)F)c1` (racemic) [Example 1.314], the IC50 lay in the range of 750 to 2000 nM. The result for `COc1cc(NC(=O)C2CCCCC2=O)ccc1S(=O)(=O)Nc1cccc(OC(F)(F)F)c1` (centres unmarked) [Example 1.457] reads 2000 to 20000 nM; that for `CCOc1cc(NC(=O)[C@H]2CC=CC[C@@H]2CO)ccc1S(=O)(=O)Nc1cccc(OC(F)(F)F)c1` [Example 1.453], ≤ 200 nM. On to `CCOc1cc(NC(=O)C(CO)c2ccccc2)ccc1S(=O)(=O)Nc1cccc(OC(F)(F)F)c1` (centres unmarked) [Example 1.473], for which the concentration for half-maximal inhibition (IC50) was ≤ 200 nM. For `CC(=O)Nc1ccc(S(=O)(=O)Nc2cccc(C(F)(F)F)c2)c(Br)c1` [Example 1.130] the value was 2000 to 20000 nM. For `CCOc1cc(NC(=O)[C@H](O)C2CCCC2)ccc1S(=O)(=O)Nc1cccc(OC(F)(F)F)c1` [Example 1.281], the half-maximal inhibitory concentration (IC50) was ≤ 200 nM. The result for `Cn1nccc1C(=O)Nc1ccc(S(=O)(=O)Nc2cccc(OC(F)(F)F)c2)c(C#N)c1` [Example 1.289] reads 750 to 2000 nM; that for `CCOc1cc(NC(=O)C(CCO)CC(C)C)ccc1S(=O)(=O)Nc1cccc(OC(F)(F)F)c1` (centres unmarked) [Example 1.383], ≤ 200 nM; that for `CCOc1cc(NC(=O)[C@@H](NC(=O)OC(C)(C)C)C(C)O)ccc1S(=O)(=O)Nc1cccc(OC(F)(F)F)c1` (some centres unmarked) [Example 1.020], 750 to 2000 nM. With `Cc1cc(NC(=O)C2CCCO2)ccc1S(=O)(=O)Nc1cccc(C(F)(F)F)c1` (centres unmarked) [Example 1.271], the IC50 lay in the range of 2000 to 20000 nM. `CCOc1cc(NC(=O)[C@H]2CC[C@](C)(O)CC2)ccc1S(=O)(=O)Nc1cccc(OC(F)(F)F)c1` [Example 1.227]: the half-maximal inhibitory concentration (IC50) lay in the range of 750 to 2000 nM. In the case of `CCOc1cc(NC(=O)[C@H](C2CCCC2)[C@@H](C)O)ccc1S(=O)(=O)Nc1cccc(OC(F)(F)F)c1` (racemic) [Example 1.147], the IC50 was ≤ 200 nM. Consider `CCOc1cc(NC(=O)C(O)c2ccc(Cl)cc2)ccc1S(=O)(=O)Nc1cccc(OC(F)(F)F)c1` (centres unmarked) [Example 1.338], for which the IC50 was ≤ 200 nM. For `CCOc1cc(NC(=O)[C@H]2CC[C@@](C)(O)CC2)ccc1S(=O)(=O)Nc1cccc(OC(F)(F)F)c1` [Example 1.043] the value was 2000 to 20000 nM; for `CCOc1cc(NC(=O)c2ccc(OC)nc2)ccc1S(=O)(=O)Nc1cccc(OC(F)(F)F)c1` [Example 1.413], ≤ 200 nM. For `Cc1cc(NC(=O)[C@@H](N)c2ccccc2)ccc1S(=O)(=O)Nc1cccc(OC(F)(F)F)c1` [Example 1.450] the value was ≤ 200 nM; for `CCOc1cc(NC(=O)[C@@H](CO)C(C)C)ccc1S(=O)(=O)Nc1cccc(C(C)(F)F)c1` [Example 1.181], ≤ 200 nM; for `CCOc1cc(NC(=O)c2ccn(C)c(=O)c2)ccc1S(=O)(=O)Nc1cccc(OC(F)(F)F)c1` [Example 1.110], ≤ 200 nM. Turning to `CCOc1cc(NC(=O)C2CCNC(=O)C2)ccc1S(=O)(=O)Nc1cccc(OC(F)(F)F)c1` (centres unmarked) [Example 1.475], the IC50 was in the range of 2000 to 20000 nM.

Consider `COc1cc(NC(=O)c2ccnn2C)ccc1S(=O)(=O)Nc1ccc(OC(F)(F)F)c(Cl)c1` [Example 1.559], for which the IC50 is 750 to 2000 nM. Regarding `CCOc1cc(NC(=O)[C@@H](CO)c2ccccc2)ccc1S(=O)(=O)Nc1cccc(C(C)(C)O)c1` [Example 1.270], the concentration for half-maximal inhibition (IC50) is 2000 to 20000 nM. The result for `CCOc1cc(NC(=O)C(COC)C(=O)O)ccc1S(=O)(=O)Nc1cccc(OC(F)(F)F)c1` (centres unmarked) [Example 1.127] reads 200 to 750 nM; that for `CC(=O)Nc1cc(C)c(S(=O)(=O)Nc2cccc(C(F)(F)F)c2)c(F)c1` [Example 1.451], 2000 to 20000 nM. For `Cc1cc(NC(=O)C2CCCOC2)ccc1S(=O)(=O)Nc1cccc(C(F)(F)F)c1` (centres unmarked) [Example 1.478] the value was 750 to 2000 nM; for `COc1cc(NC(=O)C2CC3C=CC2C3)ccc1S(=O)(=O)Nc1cccc(C(F)(F)F)c1` (centres unmarked) [Example 1.077], 2000 to 20000 nM.

`CCOc1cc(NC(=O)[C@@H](CO)c2ccccc2)ccc1S(=O)(=O)Nc1cccc(OC(F)(F)F)c1` [Example 1.536]: the IC50 is ≤ 200 nM. The result for `CCOc1cc(NC(=O)[C@@H](NC(N)=O)C(C)C)ccc1S(=O)(=O)Nc1cccc(OC(F)(F)F)c1` [Example 1.334] reads ≤ 200 nM; that for `CCOc1cc(NC(=O)C2(COC)CC2)ccc1S(=O)(=O)Nc1cccc(OC(F)(F)F)c1` [Example 1.302], 750 to 2000 nM. As for `CCOc1cc(NC(=O)C2CCN(C(=O)OC(C)(C)C)CC2)ccc1S(=O)(=O)Nc1cccc(OC(F)(F)F)c1` [Example 1.433], the IC50 was in the range of 2000 to 20000 nM. The result for `CCOc1cc(NC(=O)[C@@H](O)C(C)C)ccc1S(=O)(=O)Nc1cccc(C(C)(F)F)c1` [Example 1.261] reads ≤ 200 nM. `Cc1cc(NC(=O)c2ccnn2C)cc(F)c1S(=O)(=O)Nc1cccc(C(F)(F)F)c1` [Example 1.520]: the 50% inhibitory concentration (IC50) lay in the range of 750 to 2000 nM. For `Cc1cc(NC(=O)c2ccnn2C)cc(C)c1S(=O)(=O)Nc1cccc(C(F)(F)F)c1` [Example 1.504] the value was 200 to 750 nM.
